Test results from patent publication US12673963B2, “Cationic lipids for lipid nanoparticle delivery of therapeutics to hepatic stellate cells” (GENEVANT SCIENCES GMBH, priority 2020, dated 2026).

Assays:
mouse target mRNA = experiment: Activity assessment of HSC-LNP: liver target mRNA knock-down (QuantiGene) after IV injection of siRNA LNP (Table 1); format: in vivo, female Balb/C mice; settings: dose 0.025 mg/kg IV, 48h post-dose, relative to PBS control
Method: (§1) The lipid solution contained 4 components: a PEG-conjugated lipid, an ionizable lipid (e.g., a silicon lipid), cholesterol, and a phospholipid (e.g., DSPC). Lipid stocks were prepared using the lipid identities and molar ratios as described. The siRNA was diluted in 100 mM acetate, pH 4 buffer to prepare lipid nanoparticles (LNP) at a total lipid to siRNA weight ratio of approximately 10:1 to 20:1. Equal volumes of the lipid and nucleic acid solutions were blended at a flow rate of 400 mL/min through a T-connector, and diluted into PBS, pH 7.4. The ethanol was then removed and the external buffer replaced with Tris/NaCl buffer by dialysis. Following dialysis, the formulations were concentrated using VivaSpin concentrator units (MWCO 100,000) and filtered through a 0.2 μm pore sterile filter. Nucleic acid concentration was determined by the RiboGreen assay. Particle size and polydispersity were determined using a Malvern Nano Series Zetasizer.
(§2) Just prior to injection, the siRNA LNP stocks were filtered and diluted down to the required dosing concentration. At 48h post-dose (terminal timepoint), the animals were euthanized with a lethal dose of ketamine/xylazine. Half the left lateral lobe of the liver was collected into 1.5 mL RNALater and stored at 2-8° C. overnight. The next day, an approximately 20-25 mg piece of liver was homogenized and the liver lysate used in a QuantiGene Assay, testing for relative levels of mouse target mRNA and GAPDH expression. Data from each animal was normalized to the liver weight used in the assay, and then relative to the GAPDH signal; data is reported as the average % knock-down of each group (where the PBS control group is 100% gene expression, 0% knock-down).

reelin mRNA = experiment: Reelin mRNA knock-down following IV administration of the LNP formulations (FIGS. 1-4); format: in vivo; settings: Balb/C mice (n=4); for dose giving equivalent potency in reelin mRNA knock-down (FIG. 1) / reelin mRNA knock-down in HSCs, specificity for HSCs (FIG. 2): 48 hours following IV administration
Method: as §1
as §2, with “Generally, the LNP formulations were injected intravenously at 0.025 mg/kg to female Balb/C mice (5-8 weeks old) to measure activity of the HSC-LNP. Just” for “Just”

[1] = Clearance of LNP from mouse liver, biodegradable functionality (FIG. 7); format: in vivo
[2] = Duration of action of LNP with minimally modified siRNA (FIG. 6); format: in vivo
[3] = Tolerability assessment of HSC-LNP: liver enzyme levels (FIGS. 5A-5B); format: in vivo, female Balb/C mice; settings: dose range up to 3 mg/kg IV
Method: Generally, the LNP formulations were injected intravenously at ˜0.03 to 3 mg/kg to female Balb/C mice (5-8 weeks old) to assess tolerability of the HSC-LNP. Just prior to injection, the siRNA LNP stocks were filtered and diluted down to the required dosing concentration. At 2h post-treatment, blood was collected via tail nicks and processed to plasma (for cytokine analysis by ELISA). At the terminal timepoint (24 h post-dose), blood was collected by cardiac puncture (target ≥800 μL) and sent to IDEXX for CRES 15 panel analysis (CBC/Diff & Clin Chem analysis).
Briefly, blood (˜300 uL) was collected into EDTA microtainer tubes, inverted 10× to mix the K2EDTA whole blood sample, and immediately stored at 4° C. to await same-day shipment to for hematology analysis. The remaining blood volume (˜500 uL) was collected into serum separator tubes and inverted 5× to mix the SST sample, then allowed to clot for 1-1.5h at room temp. The blood samples were centrifuged, and serum was collected for clinical chemistry analysis.

[4] = 24 hours following IV administration

`CCCCC/C=C\CCCO[Si](C)(CCCCN1CCC2(CC1)CCN(CCCC[Si](C)(OCCC/C=C\CCCCC)OCCC/C=C\CCCCC)CC2)OCCC/C=C\CCCCC` [Compound 14] showed a Percent knock-down (mouse target mRNA; Formulation 1.1:55 (DOPE)) of 18%.

For `CCCCC/C=C\CCCO[SiH](CCCCN1CCN(C)CCN(CCCC[Si](C)(OCCC/C=C\CCCCC)OCCC/C=C\CCCCC)CC1)OCCC/C=C\CCCCC` [Compound 38], the Percent knock-down (mouse target mRNA; Formulation 1.5:50 (DSPC)) was 1%.

Work on `CCCCC/C=C\CCCO[Si](C)(CCCCN1C[C@H]2CCCN(CCCC[Si](C)(OCCC/C=C\CCCCC)OCCC/C=C\CCCCC)[C@H]2C1)OCCC/C=C\CCCCC` [Compound 43] yielded a Percent knock-down (mouse target mRNA; Formulation 1.5:50 (DSPC)) of 0%.

`CCCCC/C=C\CCCO[Si](C)(CCCCN(CC)CCCN(CC)CCCC[Si](C)(OCCC/C=C\CCCCC)OCCC/C=C\CCCCC)OCCC/C=C\CCCCC` [Compound 29] gave a Percent knock-down (mouse target mRNA; Formulation 1.1:55 (DSPC)) of 29%.

In the case of `CCCCC/C=C\CCCC(CCC/C=C\CCCCC)C(CCC/C=C\CCCCC)OC(=O)CCCCCN(C)C` (stereo not shown) [Compound 100, reference compound], the “dose required to achieve equivalent reelin mRNA knock-down (FIG. 4)” value (reelin mRNA; [4]) is reported as roughly 1 mg/kg and the “dose giving equivalent potency in reelin mRNA knock-down (FIG. 1)” value (reelin mRNA) is reported as 0.1 mg/kg.

In the case of `CCCCC/C=C\CCCO[Si](C)(CCCCN1CCC2(CC1)CCN(CCCC[Si](C)(OCCC/C=C\CCCCC)OCCC/C=C\CCCCC)CC2)OCCC/C=C\CCCCC` [Compound 42], the Percent knock-down (mouse target mRNA; Formulation 1.5:50 (DSPC)) is reported as 28%.

With `CCCCC/C=C\CCCO[Si](C)(CCCCN(C)CCCN(C)CCCC[Si](C)(OCCC/C=C\CCCCC)OCCC/C=C\CCCCC)OCCC/C=C\CCCCC` [Compound 12, N1,N3-bis(4-(bis(((Z)-dec-4-en-1-yl)oxy)(methyl)silyl)butyl)-N1,N3-dimethylpropane-1,3-diamine] the “dose at which maximum knock-down in HSCs is achieved (FIG. 3)” value (reelin mRNA; [4]) was “about 0.03 mg/kg”, the “dose required to achieve equivalent reelin mRNA knock-down (FIG. 4)” value (reelin mRNA; [4]) was 0.03 mg/kg and the “dose giving equivalent potency in reelin mRNA knock-down (FIG. 1)” value (reelin mRNA) was 0.025 mg/kg. For the same compound, the “reelin mRNA knock-down in HSCs, specificity for HSCs (FIG. 2)” value (reelin mRNA) was “high specificity for HSCs”, the “clearance of LNP from mouse liver (FIG. 7)” value [1] was “cleared rapidly from mouse liver” and the “duration of action (FIG. 6)” value [2] was “good duration of action”. The “tolerability: liver enzyme levels (FIGS. 5A-5B)” value [3] was “no significant increases in liver enzyme levels”.

In the case of `CCCCC/C=C\CCCC(CCC/C=C\CCCCC)C(CCC/C=C\CCCCC)OC(=O)CCCCN(C)C` (stereo not shown) [Compound 101, reference compound], the “reelin mRNA knock-down in HSCs, specificity for HSCs (FIG. 2)” value (reelin mRNA) is reported as “no knock-down in HSCs”.

With `CCCCC/C=C\CCCO[Si](C)(CCCCN1CCC2(CC1)CCN(CCCC[Si](C)(OCCC/C=C\CCCCC)OCCC/C=C\CCCCC)C2)OCCC/C=C\CCCCC` [Compound 39] the Percent knock-down (mouse target mRNA; Formulation 1.5:50 (DSPC)) was 81%.
